Numbered stars: 1 amine (or outer) side, 2 acyl side, 3 side chain; on linkers, the order of the positions; unused ones are H or OH. Square brackets hold non-standard residues; d marks the D form. Peptide text beside a SMILES is read from it. * marks the point of attachment. Gly(piperidin-4-yl) = N[C@H](C(=O)O)C1CCNCC1; 2Nal = N[C@@H](Cc1ccc2ccccc2c1)C(=O)O; Isobutyloxycarbonyl = CC(C)COC(=O)*; Gly(cPent) = N[C@H](C(=O)O)C1CCCC1; X1 = CCCC(N[*:1])C(=O)C(=O)[*:2]; hPhe = N[C@@H](CCc1ccccc1)C(=O)O; Aad = N[C@@H](CCCC(=O)O)C(=O)O; Cha = N[C@@H](CC1CCCCC1)C(=O)O; Chg = N[C@H](C(=O)O)C1CCCCC1; Phg = N[C@H](C(=O)O)c1ccccc1; Tle = CC(C)(C)[C@H](N)C(=O)O; hSer = N[C@@H](CCO)C(=O)O; Nle = CCCC[C@H](N)C(=O)O; Boc = CC(C)(C)OC(=O)*; OBn = c1ccc(CO*)cc1; Bn = c1ccc(C*)cc1; OtBu = CC(C)(C)O*; tBu = CC(C)(C)*

A word on the Ki: it is a measure of affinity in units of concentration, obtained from inhibition or displacement. Low readings indicate tighter binding, high ones weaker binding.

Chain of NS3 (A3EZJ3 whole entry): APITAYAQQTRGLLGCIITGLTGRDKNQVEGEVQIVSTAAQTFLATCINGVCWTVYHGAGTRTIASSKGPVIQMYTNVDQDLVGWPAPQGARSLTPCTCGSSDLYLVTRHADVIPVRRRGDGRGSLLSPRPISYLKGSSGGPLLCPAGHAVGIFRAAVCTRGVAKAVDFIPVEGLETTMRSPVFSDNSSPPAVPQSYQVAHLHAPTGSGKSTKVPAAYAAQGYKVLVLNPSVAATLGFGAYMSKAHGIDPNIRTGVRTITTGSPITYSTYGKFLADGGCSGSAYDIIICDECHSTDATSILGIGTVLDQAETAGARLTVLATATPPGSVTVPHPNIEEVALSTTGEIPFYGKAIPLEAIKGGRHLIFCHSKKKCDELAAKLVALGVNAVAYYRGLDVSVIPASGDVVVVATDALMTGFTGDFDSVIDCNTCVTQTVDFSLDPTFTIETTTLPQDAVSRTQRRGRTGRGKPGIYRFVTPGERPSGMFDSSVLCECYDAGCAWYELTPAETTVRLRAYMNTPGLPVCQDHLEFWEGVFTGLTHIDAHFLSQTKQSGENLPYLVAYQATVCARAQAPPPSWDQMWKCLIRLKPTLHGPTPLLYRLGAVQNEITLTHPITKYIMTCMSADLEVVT

The assay addresses NS3 (Hepatitis C virus, UniProt A3EZJ3). As to the kind of experiment: Inhibitory activity against Hepatitis C virus NS3 serine protease in continuous spectrophotometric assay. More on the design: species or system Hepacivirus hominis.
As for `CCCC(NC(=O)[C@H](CC(C)C)NC(=O)[C@@H](NC(=O)OCC(C)C)C1CCCCC1)C(=O)C(=O)NCC(=O)N[C@H](C(=O)O)C1CCN(C(=O)OC(C)(C)C)CC1` (some centres not stated), the affinity corresponds to a Ki of 3.3 µM.
`CCCC(NC(=O)[C@H](CC(C)C)NC(=O)[C@@H](NC(=O)OC(C)(C)C)C1CCCCC1)C(=O)C(=O)NCC(=O)NCc1ccccc1` (some centres not stated) registered a Ki of 81 µM.
Turning to `CCCC(NC(=O)[C@@H]1CCCN1C(=O)[C@@H](NC(=O)OC(C)(C)C)C1CCCCC1)C(=O)C(=O)NCC(=O)NCc1ccccc1` (some centres not stated), the inhibition constant (Ki) was determined as 45 µM.
In turn, `CCCC(NC(=O)[C@H](CC(C)C)NC(=O)[C@@H](NC(=O)OC(C)(C)C)C1CCCCC1)C(=O)C(=O)NCC(=O)N[C@H](C(=O)OCc1ccccc1)c1ccccc1` (some centres not stated) (Boc-[Chg]L[X1]G[Phg]-OBn) showed a Ki of 0.6 µM.
Turning to `CCCC(NC(=O)[C@H](CC(C)C)NC(=O)[C@@H](NC(=O)OC(C)(C)C)C1CCCCC1)C(=O)C(=O)NCC(=O)N[C@H](C(=O)O)c1ccccc1` (some centres not stated) (Boc-[Chg]L[X1]G[Phg]-OH), the affinity, expressed as Ki, was 0.098 µM.
The result for `CCCC(NC(=O)[C@@H]1CCCN1C(=O)[C@@H](NC(=O)OCC(C)C)C(C)C)C(=O)C(=O)NCC(=O)N[C@@H](CC(=O)OC)C(=O)OC` (some centres not stated) (Isobutyloxycarbonyl-VP[X1]GD(OMe)-OMe) reads 55 µM; that for `CCCC(NC(=O)[C@@H]1CCCN1C(=O)[C@@H](NC(=O)OCC(C)C)C(C)C)C(=O)C(=O)NCC(=O)N[C@@H](CC(=O)O)C(=O)O` (some centres not stated) (Isobutyloxycarbonyl-VP[X1]GD-OH), > 100 µM.
Compound `CCCC(NC(=O)[C@@H]1CCCN1C(=O)[C@@H](NC(=O)OCC(C)C)C(C)C)C(=O)C(=O)NCC(=O)N[C@@H](CCC(=O)OCC)C(=O)OC` (some centres not stated) (Isobutyloxycarbonyl-VP[X1]GE(OEt)-OMe) had a Ki of 20 µM.
On to `CCCC(NC(=O)[C@@H]1CCCN1C(=O)[C@@H](NC(=O)OCC(C)C)C(C)C)C(=O)C(=O)NCC(=O)N[C@@H](CCC(=O)O)C(=O)O` (some centres not stated) (Isobutyloxycarbonyl-VP[X1]GE-OH), for which the Ki was > 100 µM.
As for `CCCC(NC(=O)[C@@H]1CCCN1C(=O)[C@@H](NC(=O)OCC(C)C)C(C)C)C(=O)C(=O)NCC(=O)N[C@@H](Cc1ccccc1)C(N)=O` (some centres not stated) (Isobutyloxycarbonyl-VP[X1]GF-NH2), the Ki was 15 µM.
In turn, `CCCC(NC(=O)[C@@H]1CCCN1C(=O)[C@@H](NC(=O)OCC(C)C)C(C)C)C(=O)C(=O)NCC(=O)N[C@H](C(=O)O)[C@@H](C)CC` (some centres not stated) (Isobutyloxycarbonyl-VP[X1]GI-OH) registered a Ki of 15 µM.
The result for `CCCC(NC(=O)[C@@H]1CCCN1C(=O)[C@@H](NC(=O)OCC(C)C)C(C)C)C(=O)C(=O)NCC(=O)N[C@H](C(=O)OC)[C@@H](C)CC` (some centres not stated) (Isobutyloxycarbonyl-VP[X1]GI-OMe) reads 15 µM; that for `CCCC(NC(=O)[C@@H]1CCCN1C(=O)[C@@H](NC(=O)OCC(C)C)C(C)C)C(=O)C(=O)NCC(=O)N[C@@H](CCCCN)C(N)=O` (some centres not stated) (Isobutyloxycarbonyl-VP[X1]GK-NH2), 82 µM; that for `CCCC(NC(=O)[C@@H]1CCCN1C(=O)[C@@H](NC(=O)OCC(C)C)C(C)C)C(=O)C(=O)NCC(=O)N[C@@H](CC(C)C)C(N)=O` (some centres not stated) (Isobutyloxycarbonyl-VP[X1]GL-NH2), 16 µM.
Consider `CCCC(NC(=O)[C@@H]1CCCN1C(=O)[C@@H](NC(=O)OCC(C)C)C(C)C)C(=O)C(=O)NCC(=O)N[C@@H](COCc1ccccc1)C(N)=O` (some centres not stated) (Isobutyloxycarbonyl-VP[X1]GS(Bn)-NH2), for which the Ki turned out to be 3.5 µM.
The result for `CCCC(NC(=O)[C@@H]1CCCN1C(=O)[C@@H](NC(=O)OCC(C)C)C(C)C)C(=O)C(=O)NCC(=O)N[C@@H](Cc1ccc2ccccc2c1)C(N)=O` (some centres not stated) (Isobutyloxycarbonyl-VP[X1]G[2Nal]-NH2) reads 12 µM; that for `CCCC(NC(=O)[C@@H]1CCCN1C(=O)[C@@H](NC(=O)OCC(C)C)C(C)C)C(=O)C(=O)NCC(=O)N[C@@H](CCCC(=O)O)C(N)=O` (some centres not stated) (Isobutyloxycarbonyl-VP[X1]G[Aad]-NH2), 18 µM.
In the case of `CCCC(NC(=O)[C@@H]1CCCN1C(=O)[C@@H](NC(=O)OCC(C)C)C(C)C)C(=O)C(=O)NCC(=O)N[C@@H](CC1CCCCC1)C(N)=O` (some centres not stated) (Isobutyloxycarbonyl-VP[X1]G[Cha]-NH2), the affinity corresponds to a Ki of 8 µM.
Compound `CCCC(NC(=O)[C@@H]1CCCN1C(=O)[C@@H](NC(=O)OCC(C)C)C(C)C)C(=O)C(=O)NCC(=O)N[C@H](C(N)=O)C1CCCCC1` (some centres not stated) (Isobutyloxycarbonyl-VP[X1]G[Chg]-NH2) came in with a Ki of 2.6 µM.
As for `CCCC(NC(=O)[C@@H]1CCCN1C(=O)[C@@H](NC(=O)OCC(C)C)C(C)C)C(=O)C(=O)NCC(=O)N[C@H](C(N)=O)c1ccccc1` (some centres not stated) (Isobutyloxycarbonyl-VP[X1]G[Phg]-NH2), the affinity, expressed as Ki, was 2.1 µM.
`CCCC(NC(=O)[C@@H]1CCCN1C(=O)[C@@H](NC(=O)OCC(C)C)C(C)C)C(=O)C(=O)NCC(=O)N[C@H](C(N)=O)C(C)(C)C` (some centres not stated) (Isobutyloxycarbonyl-VP[X1]G[Tle]-NH2) displayed a Ki of 53 µM.
As for `CCCC(NC(=O)[C@@H]1CCCN1C(=O)[C@@H](NC(=O)OCC(C)C)C(C)C)C(=O)C(=O)NCC(=O)N[C@@H](CCc1ccccc1)C(N)=O` (some centres not stated) (Isobutyloxycarbonyl-VP[X1]G[hPhe]-NH2), the Ki is 6.7 µM.
`CCCC(NC(=O)[C@@H]1CCCN1C(=O)[C@@H](NC(=O)OCC(C)C)C(C)C)C(=O)C(=O)NCC(=O)N[C@@H](CCO)C(N)=O` (some centres not stated) (Isobutyloxycarbonyl-VP[X1]G[hSer]-NH2) yielded a Ki of 111 µM.
With `CCCC(NC(=O)[C@H](CC(C)C)NC(=O)[C@@H](NC(=O)OCC(C)C)C1CCCCC1)C(=O)C(=O)NCC(=O)N[C@@H](CC(=O)O)C(N)=O` (some centres not stated) (Isobutyloxycarbonyl-[Chg]L[X1]GD-NH2) the figure was 8.4 µM.
`CCCC(NC(=O)[C@H](CC(C)C)NC(=O)[C@@H](NC(=O)OCC(C)C)C1CCCCC1)C(=O)C(=O)NCC(=O)N[C@@H](COC(C)(C)C)C(N)=O` (some centres not stated) (Isobutyloxycarbonyl-[Chg]L[X1]GS(tBu)-NH2): the Ki was determined as 0.46 µM.
In the case of `CCCC(NC(=O)[C@H](CC(C)C)NC(=O)[C@@H](NC(=O)OCC(C)C)C1CCCCC1)C(=O)C(=O)NCC(=O)N[C@H](C(N)=O)C(C)C` (some centres not stated) (Isobutyloxycarbonyl-[Chg]L[X1]GV-NH2), the affinity, expressed as Ki, was 2.6 µM.
The result for `CCCC(NC(=O)[C@H](CC(C)C)NC(=O)[C@@H](NC(=O)OCC(C)C)C1CCCCC1)C(=O)C(=O)NCC(=O)N[C@H](C(=O)O)C1CCCC1` (some centres not stated) (Isobutyloxycarbonyl-[Chg]L[X1]G[Gly(cPent)]-OH) reads 0.33 µM; that for `CCCC(NC(=O)[C@H](CC(C)C)NC(=O)[C@@H](NC(=O)OCC(C)C)C1CCCCC1)C(=O)C(=O)NCC(=O)N[C@H](C(=O)O)C1CCNCC1` (some centres not stated) (Isobutyloxycarbonyl-[Chg]L[X1]G[Gly(piperidin-4-yl)]-OH), 6.4 µM.
With `CCCC[C@H](NC(=O)CNC(=O)C(=O)C(CCC)NC(=O)[C@H](CC(C)C)NC(=O)[C@@H](NC(=O)OCC(C)C)C1CCCCC1)C(N)=O` (some centres not stated) (Isobutyloxycarbonyl-[Chg]L[X1]G[Nle]-NH2) the figure was 0.28 µM.
With `CCCC(NC(=O)[C@H](CC(C)C)NC(=O)[C@@H](NC(=O)OCC(C)C)C1CCCCC1)C(=O)C(=O)NCC(=O)N[C@H](C(=O)O)c1ccccc1` (some centres not stated) (Isobutyloxycarbonyl-[Chg]L[X1]G[Phg]-OH) the figure was 0.12 µM.
Consider `CCCC(NC(=O)[C@H](CC(C)C)NC(=O)[C@@H](NC(=O)OCC(C)C)C1CCCCC1)C(=O)C(=O)NCC(=O)N[C@H](C(=O)OC(C)(C)C)c1ccccc1` (some centres not stated) (Isobutyloxycarbonyl-[Chg]L[X1]G[Phg]-OtBu), for which the affinity, expressed as Ki, was 0.65 µM.
`CCCC(NC(=O)[C@@H]1CCCN1C(=O)[C@@H](NC(=O)OCC(C)C)C1CCCCC1)C(=O)C(=O)NCC(=O)N[C@H](C(N)=O)c1ccccc1` (some centres not stated) (Isobutyloxycarbonyl-[Chg]P[X1]G[Phg]-NH2) had a Ki of 0.36 µM.

These data come from ChEMBL document CHEMBL1141039, “Hepatitis C virus NS3-4A serine protease inhibitors: SAR of P'2 moiety with improved potency” (Bioorg Med Chem Lett, 2005).
